Test results taken from article PMC8389915, “Synthesis and Preclinical Validation of Novel Indole Derivatives as a GPR17 Agonist for Glioblastoma Treatment” (Journal of Medicinal Chemistry, 2021).

Biological target: G protein-coupled receptor 17 (GPR17) (Homo sapiens, UniProt Q13304)
Sequence (Q13304 whole entry): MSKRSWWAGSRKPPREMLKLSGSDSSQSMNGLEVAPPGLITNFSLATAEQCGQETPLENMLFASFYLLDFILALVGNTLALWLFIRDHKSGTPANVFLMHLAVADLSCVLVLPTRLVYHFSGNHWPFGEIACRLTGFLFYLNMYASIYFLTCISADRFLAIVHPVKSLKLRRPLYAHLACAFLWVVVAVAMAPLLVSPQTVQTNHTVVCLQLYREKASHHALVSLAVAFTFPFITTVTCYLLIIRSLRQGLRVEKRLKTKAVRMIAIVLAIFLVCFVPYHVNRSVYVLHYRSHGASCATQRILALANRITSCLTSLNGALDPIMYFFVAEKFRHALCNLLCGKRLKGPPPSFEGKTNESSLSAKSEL

O=C(Nc1ccccc1)Oc1cc(OC(=O)Nc2ccccc2)c2c(c1)N(C(c1ccc(F)cc1)c1cccc(Cl)c1O)CC2 (stereo not shown) [CHBC, 1-((3-chloro-2-hydroxyphenyl)(4-fluorophenyl)methyl)indoline-4,6-diyl bis(phenylcarbamate)]
EC50: 19.2 µM
